Patent US20250188030A1, “Biphenyl and Phenylpyridine Compounds” (Pfizer Inc., priority 2023, published 2025)
Where two headings read alike, the source gives them in different places.

Biological target: KAT2A (Homo sapiens (Human), UniProt Q92830)
Test: KAT2A acetyltransferase biochemical assay (RapidFire mass spectrometry, AcCoA to CoA)
[1] = KAT2A Ki at 1 μM AcCoA, 5 μM H3 1-21 peptide, 0.5 nM KAT2A, 90-minute reaction
[2] = read-out: KAT2A Ki at 1 μM AcCoA, 5 μM H3 1-21 peptide, 0.5 nM KAT2A, 90-minute reaction

KAT2A, sequence (Q92830 whole entry): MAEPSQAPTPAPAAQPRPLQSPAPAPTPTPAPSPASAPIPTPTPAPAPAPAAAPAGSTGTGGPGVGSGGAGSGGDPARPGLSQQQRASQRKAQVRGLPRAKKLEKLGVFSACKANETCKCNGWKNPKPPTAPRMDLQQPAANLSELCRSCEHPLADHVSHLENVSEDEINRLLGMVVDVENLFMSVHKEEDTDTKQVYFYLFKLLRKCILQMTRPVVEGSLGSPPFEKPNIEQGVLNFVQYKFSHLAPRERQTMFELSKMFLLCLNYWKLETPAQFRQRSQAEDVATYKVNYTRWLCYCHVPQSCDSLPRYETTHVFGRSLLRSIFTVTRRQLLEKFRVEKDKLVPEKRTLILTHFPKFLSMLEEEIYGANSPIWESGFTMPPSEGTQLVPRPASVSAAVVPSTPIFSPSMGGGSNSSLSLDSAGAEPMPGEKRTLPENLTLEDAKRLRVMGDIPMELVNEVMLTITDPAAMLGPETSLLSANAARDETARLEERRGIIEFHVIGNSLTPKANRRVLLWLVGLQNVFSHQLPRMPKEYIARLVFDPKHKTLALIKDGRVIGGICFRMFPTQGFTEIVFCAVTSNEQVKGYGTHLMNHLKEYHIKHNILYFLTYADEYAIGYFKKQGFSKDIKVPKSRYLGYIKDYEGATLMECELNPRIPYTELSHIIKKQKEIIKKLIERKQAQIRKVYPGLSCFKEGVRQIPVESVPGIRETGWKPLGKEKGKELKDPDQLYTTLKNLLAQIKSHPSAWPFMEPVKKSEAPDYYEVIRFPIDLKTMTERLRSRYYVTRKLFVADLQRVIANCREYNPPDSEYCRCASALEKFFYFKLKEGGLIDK

CS(=O)(=O)NC(=O)Cc1ccc(O[C@@H]2CC[C@@H](NC(=O)[C@]3(F)CNC4(CCC4)C3)C2)c(-c2cccc(F)c2C2CCC2)c1 (single isomer, unassigned) [Example C39]
Ki [1]: 20.4 nM

CC(C)S(=O)(=O)NC(=O)C(C)(C)c1ccc(O[C@@H]2CC[C@@H](NC(=O)[C@@]3(F)CNC4(CCCC4)C3)C2)c(-c2cccc(F)c2C2CCC2)c1 (single isomer, unassigned) [Example B23]
Ki [2]: > 1000 nM

CC1(C)CNC[C@](F)(C(=O)N[C@@H]2CC[C@@H](Oc3ccc(C(C)(C)C(=O)NS(C)(=O)=O)cc3-c3cccc(F)c3C3CCC3)C2)C1 (single isomer, unassigned) [Example C36]
Ki [2]: 118 nM

CN1CC2(CCCC2)C[C@H]1C(=O)N[C@@H]1CC[C@@H](Oc2cccc(C(=O)NS(C)(=O)=O)c2-c2cccc(F)c2C2CCC2)C1 (atropisomer, axis not shown) [Example I9, (3ξ)-N-[(1R,3R)-3-({(1ψ)-2′-cyclobutyl-3′-fluoro-6-[(methanesulfonyl)carbamoyl][1,1′-biphenyl]-2-yl}oxy)cyclopentyl]-2-methyl-2-azaspiro[4.4]nonane-3-carboxamide]
Ki [2]: 411 nM

Cc1cc(NS(C)(=O)=O)n(-c2ccc(O[C@@H]3CC[C@@H](NC(=O)[C@@]4(F)CNC5(CCC5)C4)C3)c(-c3cccc(F)c3C3CCC3)c2)n1 (single isomer, unassigned) [Example L2]
Ki [1]: > 99.9 nM

CCc1c(F)cccc1-c1cc(CC(=O)NS(=O)(=O)C(C)C)ccc1O[C@@H]1CC[C@@H](NC(=O)[C@@]2(F)CNCC(C)(C)C2)C1 (single isomer, unassigned) [Example C66]
Ki [2]: 11.8 nM

CC1(C)CNC[C@](F)(C(=O)N[C@@H]2CC[C@@H](Oc3ccc(CC(=O)O)cc3-c3cccc(F)c3C3CCC3)C2)C1 (single isomer, unassigned) [Example A24]
Ki [2]: 15.4 nM

C[C@H](C(=O)O)c1nn(C)cc1-c1ccc(O[C@@H]2CC[C@@H](NC(=O)[C@]3(F)CNC4(CCC4)C3)C2)c(-c2cccc(F)c2C2CCC2)c1 (single isomer, unassigned) [Example J3]
Ki [2]: 842 nM

CC1(C)C[C@@H](C(=O)N[C@@H]2CC[C@@H](Oc3cccc(C(=O)O)c3-c3cccc(F)c3C3CCC3)C2)CN1 (atropisomer, axis not shown) [Example H8, (1ψ)-2′-cyclobutyl-6-{[(1R,3R)-3-{[(3ξ)-5,5-dimethylpyrrolidine-3-carbonyl]amino}cyclopentyl]oxy}-3′-fluoro[1,1′-biphenyl]-2-carboxylic acid]
Ki [2]: 348 nM

CC(C)c1ccccc1-c1c(CC(=O)O)cccc1O[C@@H]1CC[C@@H](NC(=O)[C@@H]2CC(C)(C)CN2C)C1 (atropisomer, axis not shown) [Example H5, [(1ψ)-2′-(propan-2-yl)-6-({(1R,3R)-3-[(1,4,4-trimethyl-L-prolyl)amino]cyclopentyl}oxy)[1,1′-biphenyl]-2-yl]acetic acid]
Ki [2]: 9040 nM

C[C@H](C(=O)O)c1ccc(O[C@@H]2CC[C@@H](NC(=O)[C@@]3(F)CNC4(CCC4)C3)C2)c(-c2cccc(F)c2C2CCC2)c1 (single isomer, unassigned) [Example A17]
Ki [2]: > 1000 nM

CC(C)(C(=O)NS(=O)(=O)C1CC1)c1ccc(O[C@@H]2CC[C@@H](NC(=O)[C@]3(F)CNC4(CCC4)C3)C2)c(-c2cccc(F)c2C2CCC2)c1 (single isomer, unassigned) [Example B11]
Ki [2]: 517 nM

CC(C)(C(=O)NS(=O)(=O)N1CC(F)(F)C1)c1ccc(O[C@@H]2CC[C@@H](NC(=O)[C@]3(F)CNC4(CCC4)C3)C2)c(-c2cccc(F)c2C2CCC2)c1 (single isomer, unassigned) [Example B9]
Ki [2]: 209 nM

CC1(S(=O)(=O)NC(=O)Cc2ccc(O[C@@H]3CC[C@@H](NC(=O)[C@@]4(F)CNC5(CCCC5)C4)C3)c(-c3cccc(F)c3C3CCC3)c2)CC1 (single isomer, unassigned) [Example C68]
Ki [2]: 13.2 nM

O=C(Cc1ccc(O[C@@H]2CC[C@@H](NC(=O)[C@@]3(F)CNC4(CCC4)C3)C2)c(-c2cccc(F)c2C2CCC2)c1)NS(=O)(=O)C1CC1 (single isomer, unassigned) [Example C30]
Ki [2]: 238 nM

CCS(=O)(=O)NC(=O)Cc1ccc(O[C@@H]2CC[C@@H](NC(=O)[C@@]3(F)CNC4(CCCC4)C3)C2)c(-c2ccccc2C(C)C)c1 (single isomer, unassigned) [Example C64]
Ki [2]: > 99.9 nM

CC(C)S(=O)(=O)NC(=O)C(C)(C)c1ccc(O[C@@H]2CC[C@@H](NC(=O)[C@]3(F)CNC4(CCC4)C3)C2)c(-c2ccccc2C2CCC2)c1 (single isomer, unassigned) [Example C49]
Ki [2]: > 99.9 nM

CC1(C)CNC[C@](F)(C(=O)N[C@@H]2CC[C@@H](Oc3ccc(C(C)(C)C(=O)NS(=O)(=O)C4CC4)cc3-c3cccc(F)c3C3CCC3)C2)C1 (single isomer, unassigned) [Example B27]
Ki [2]: 103 nM

CCc1c(F)cccc1-c1cc(C(C)(C)C(=O)NS(=O)(=O)C(C)C)ccc1O[C@@H]1CC[C@@H](NC(=O)[C@@]2(F)CNC3(CCCC3)C2)C1 (single isomer, unassigned) [Example C28]
Ki [2]: 302 nM

CC(C)(C(=O)NS(=O)(=O)C1(C)CC1)c1ccc(O[C@@H]2CC[C@@H](NC(=O)[C@@]3(F)CNC4(CCC4)C3)C2)c(-c2cccc(F)c2C2CCC2)c1 (single isomer, unassigned) [Example B33]
Ki [2]: 27.6 nM

CC(C)c1ccccc1-c1cc(CC(=O)NS(=O)(=O)C2(C)CC2)ccc1O[C@@H]1CC[C@@H](NC(=O)[C@@]2(F)CNC3(CCCC3)C2)C1 (single isomer, unassigned) [Example C62]
Ki [2]: > 99.9 nM

C[C@H](C(=O)O)c1ccc(O[C@@H]2CC[C@@H](NC(=O)[C@@]3(F)CNC4(CCC4)C3)C2)c(-c2cccc(F)c2C2CCC2)c1 (single isomer, unassigned) [Example A18]
Ki [2]: 751 nM

CS(=O)(=O)NC(=O)Cc1ccc(O[C@@H]2CC[C@@H](NC(=O)C3(F)CNC4(CCCC4)C3)C2)c(-c2cccc(F)c2C2CCC2)c1 (single isomer, unassigned) [Example B15]
Ki [1]: 660 nM

CC(C)S(=O)(=O)NC(=O)C(C)(C)c1ccc(O[C@@H]2CC[C@@H](NC(=O)[C@@]3(F)CNCC(C)(C)C3)C2)c(-c2cccc(F)c2C2CCC2)c1 (single isomer, unassigned) [Example B29]
Ki [2]: 221 nM

CCn1cc(-c2ccc(O[C@@H]3CC[C@@H](NC(=O)[C@@]4(F)CNC5(CCC5)C4)C3)c(-c3cccc(F)c3C3CCC3)c2)c(C(=O)O)n1 (single isomer, unassigned) [Example J14]
Ki [2]: 284 nM

CC(C)(C(=O)NS(=O)(=O)C1CC1)c1ccc(O[C@@H]2CC[C@@H](NC(=O)[C@@]3(F)CNC4(CCCC4)C3)C2)c(-c2cccc(F)c2C2CCC2)c1 (single isomer, unassigned) [Example B25]
Ki [2]: 72.8 nM

O=C(O)Cc1ccc(O[C@@H]2CC[C@@H](NC(=O)[C@]3(F)CNC4(CCC4)C3)C2)c(-c2cccc(F)c2C2CCC2)c1 (single isomer, unassigned) [Example A8]
Ki [2]: > 400 nM

CC(C)(C(=O)O)c1ccc(O[C@@H]2CC[C@@H](NC(=O)[C@]3(F)CNC4(CCC4)C3)C2)c(-c2cccc(F)c2C2CCC2)c1 [Example A2, 2-(2′-cyclobutyl-3′-fluoro-6-{[(1R,3R)-3-({[(7R)-7-fluoro-5-azaspiro[3.4]oct-7-yl]carbonyl}amino)cyclopentyl]oxy}biphenyl-3-yl)-2-methylpropanoic acid]
Ki [1]: 2750 nM

CC1(C)C[C@@H](C(=O)N[C@@H]2CC[C@@H](Oc3cccc(C(=O)O)c3-c3cccc(F)c3C3CCC3)C2)CN1 (atropisomer, axis not shown) [Example H10]
Ki [2]: 26400 nM

CCc1c(F)cccc1-c1cc([C@@H](C)C(=O)NS(=O)(=O)C2(C)CC2)ccc1O[C@@H]1CC[C@@H](NC(=O)[C@@]2(F)CNC3(CCCC3)C2)C1 (single isomer, unassigned) [Example C86]
Ki [2]: > 99.9 nM

CC1(C)CNC[C@](F)(C(=O)N[C@@H]2CC[C@@H](Oc3ccc(C(C)(C)C(=O)NS(=O)(=O)C4(C)CC4)cc3-c3cccc(F)c3C3CCC3)C2)C1 (single isomer, unassigned) [Example C34]
Ki [2]: 321 nM

CCc1c(F)cccc1-c1cc([C@@H](C)C(=O)NS(=O)(=O)C2(C)CC2)ccc1O[C@@H]1CC[C@@H](NC(=O)[C@@]2(F)CNC3(CCCC3)C2)C1 (single isomer, unassigned) [Example C84]
Ki [2]: > 99.9 nM

CN1CC(C)(C)C[C@H]1C(=O)N[C@@H]1CC[C@@H](Oc2cccc(C(=O)NS(C)(=O)=O)c2-c2cccc(F)c2C2CCC2)C1 (atropisomer, axis not shown) [Example I2, N-[(1R,3R)-3-({(1ψ)-2′-cyclobutyl-3′-fluoro-6-[(methanesulfonyl)carbamoyl][1,1′-biphenyl]-2-yl}oxy)cyclopentyl]-1,4,4-trimethyl-L-prolinamide]
Ki [2]: 1970 nM

CC(C)c1c(F)cccc1-c1cc(C(C)(C)C(=O)NS(=O)(=O)C2(C)CC2)ccc1O[C@@H]1CC[C@@H](NC(=O)[C@@]2(F)CNC3(CCC3)C2)C1 (single isomer, unassigned) [Example C42]
Ki [2]: > 99.9 nM

CC(C)S(=O)(=O)NC(=O)C(C)(C)c1ccc(O[C@@H]2CC[C@@H](NC(=O)[C@@]3(F)CNC4(CCC4)C3)C2)c(-c2cccc(F)c2C2CCC2)c1 (single isomer, unassigned) [Example B3]
Ki [1]: 236 nM

CCS(=O)(=O)NC(=O)C(C)(C)c1ccc(O[C@@H]2CC[C@@H](NC(=O)[C@@]3(F)CNC4(CCCC4)C3)C2)c(-c2cccc(F)c2C2CCC2)c1 (single isomer, unassigned) [Example B19]
Ki [2]: 34.7 nM

CCS(=O)(=O)NC(=O)C(C)(C)c1ccc(O[C@@H]2CC[C@@H](NC(=O)[C@@]3(F)CNCC(C)(C)C3)C2)c(-c2cccc(F)c2C2CCC2)c1 (single isomer, unassigned) [Example B21]
Ki [2]: 81.7 nM

CN1CC(C)(C)C[C@H]1C(=O)N[C@@H]1CC[C@@H](Oc2cccc(CC(=O)NS(N)(=O)=O)c2-c2ccccc2C2CCC2)C1 (atropisomer, axis not shown) [Example I6, N-[(1R,3R)-3-({(1ψ)-2′-cyclobutyl-6-[2-oxo-2-(sulfamoylamino)ethyl][1,1′-biphenyl]-2-yl}oxy)cyclopentyl]-1,4,4-trimethyl-L-prolinamide]
Ki [2]: 387 nM
